Results published in US4377587A, “Arylamine derivatives and use thereof as microbicides” (Ciba-Geigy Corporation, priority 1980, dated 1983).
Values after ≈ are worked out from the molar mass of the structure shown.

Key:
[1] = system: Phytophthora infestans; type: in vivo, Phytophthora infestans (on tomato plants); conditions: tomato, spray 0.06% active ingredient, infested after 24 hours, evaluated after 5 days at 20° C.
[2] = system: Phytophthora infestans; type: in vivo, Phytophthora infestans (on tomato plants); conditions: tomato, sprayed 0.06% active ingredient 22 hours after infestation, evaluated 5 days after infestation
[3] = system: Venturia inaequalis; assay: Residual-protective action against Venturia inaequalis on apple shoots; type: in vivo; conditions: spray 0.06%, evaluated 15 days after infection
Procedure: Residual-protective action against Venturia inaequalis on apple shoots
Apple cuttings with 10-20 cm long fresh shoots are sprayed with a spray mixture prepared from a wettable powder formulation of the active ingredient (0.06%). After 24 hours the treated plants are infected with a conidia suspension of the fungus. The plants are then incubated for 5 days at 90-100% relative humidity and stood in a greenhouse for a further 10 days at 20°-24° C. Scab infestation is evaluated 15 days after infection.

[4] = system: Pythium debaryanum; assay: Action on Pythium debaryanum on sugar beets, (a) after soil application; type: in vivo; conditions: sugar beet, 20 ppm of active ingredient based on volume of soil, 2-3 weeks at 20°-24° C.
Text: (§1) Action on Pythium debaryanum on sugar beets
(a) Action after soil application
The fungus is cultivated on carrot chips nutrient solution and added to a mixture of earth and sand. Flower pots are filled with the infected soil, in which sugar beet seeds are then sown. Immediately after sowing, the test preparations formulated as wettable powders are poured in the form of aqueous suspensions over the soil (20 ppm of active ingredient, based on the volume of the soil). The pots are then stood for 2-3 weeks in a greenhouse at 20°-24° C. The soil is kept uniformly moist by gently spraying it with water. The emergence of the sugar beet plants as well as the number of healthy and sick plants are ascertained in evaluating the test.

[5] = system: Pythium debaryanum; assay: Action on Pythium debaryanum on sugar beets, (b) after seed dressing application; type: in vivo; conditions: sugar beet, seed dressing 0.06%, 2-3 weeks at c. 20° C.
Procedure: as §1
(b) Action after seed dressing application
The fungus is cultivated on carrot chip nutrient solution and added to a mixture of earth and sand. Flower pots are filled with the infected soil and sugar beet seeds which have been treated with the test preparations formulated as seed dressing powders are sown therein (0.06% of one of the compounds of Tables 1 and 2). The pots are then stood in a greenhouse for 2-3 weeks at c. 20° C. The soil is kept uniformly moist by gently spraying it with water. The emergence of the sugar beet plants is ascertained in evaluating the test.

[6] = system: Podosphaera leucotricha; assay: Residual-protective action against Podosphaera leucotricha on apples; type: in vivo; conditions: apple seedlings, spray 0.06% of active ingredient, evaluated 12 days after infection
Procedure: Residual-protective action against Podosphaera leucotricha on apples
Apple seedlings in the 5-leaf stage are sprayed with a spray mixture (0.06% of active ingredient) prepared from a wettable powder formulation of the active ingredient. After 24 hours the treated plants are infected with a conidia suspension of the fungus and placed in a climatic chamber at 70% relative humidity and 20° C. Evaluation of fungus infestation is made 12 days after infection.

[7] = Water solubility; type: physicochemical; conditions: 25° C.
Text: (§2) Determination of physico-chemical data
(a) Reduced water solubility

[8] = Volatility: evaporation half-life T50 in an evaporating tube; type: physicochemical; conditions: 50° C., stream of air of 20 m/h, relative to T50 of Metalaxyl
Procedure: as §2
In an evaporating tube, the evaporation half-life values T50 of representative fungicides of this invention are determined at 50° C. and in a stream of air of 20 m/h. The values are shown below, relative to the corresponding half-life T50 of Metalaxyl.

[9] = system: Erysiphe graminis; assay: Action against Erysiphe graminis on barley, residual protective action; type: in vivo, Erysiphe graminis (on barley plants); conditions: 0.02% active ingredient sprayed, infected after 3-4 hours, evaluated after 10 days
Procedure: Action against Erysiphe graminis on barley
Residual protective action
Barley plants about 8 cm in height are sprayed with a spray mixture (0.02% of active ingredient) prepared from the active ingredient formulated as a wettable powder. The treated plants are dusted with conidia of the fungus after 3-4 hours. The infected barley plants are then stood in a greenhouse at about 22° C. The extent of the fungus infection is evaluated after 10 days.

Compound | fungus attack compared with untreated control plants (100% attack), residual-protective [1] | fungus attack compared with untreated and infected control plants (100% attack), residual curative [2] | scab infestation (reduced to) [3] | emergent plants (fully effective against Pythium pathogens), soil application [4] | emergent plants (fully effective against Pythium pathogens), seed dressing application [5] | fungus attack compared with untreated and infected control seedlings (100% attack) [6] | solubility [7] | Multiple of Metalaxyl T50 (evaporation half-life) [8] | fungus attack compared with control plants (100% attack) [9]
COCC(=O)N(c1c(N)ccc2ccccc12)C(C)C(=O)OC (centres unmarked) [Compound 701, 1N-(1'-methoxycarbonylethyl)-1N-methoxyacetyl-1,2-diaminonaphthalene] | less than 10% | less than 10% | 10-15% | over 90% | over 90% |  |  |  | 
COCC(=O)N(c1c(N)ccc(C)c1C)C(C)C(=O)OC (centres unmarked) [Compound 8, N-(1'methoxycarbonylethyyl)-N-methoxyacetyl-2,3-dimethyl-6-aminoaniline] | less than 10% | less than 10% | 10-15% | over 90% | over 90% | less than 10% |  |  | 
COCC(=O)N(c1c(C)cccc1N)C(C)C(=O)OC (centres unmarked) [Compound 2, N-(1'-methoxycarbonylethyl)-N-methoxyacetyl-2-amino-6-methyl-aniline] | less than 10% | less than 10% |  | over 90% | over 90% | less than 10% | 300 µg/mL (≈ 1.07 mM) | 5.4 × | 
CCOCC(=O)N(c1c(C)ccc([N+](=O)[O-])c1C)C(C)C(=O)OC (centres unmarked) [Compound 31, N-(1'-methoxycarbonylethyl)-N-ethoxyacetyl-2,6-dimethyl-3-nitroaniline] | less than 10% | less than 10% | 10-15% | over 90% | over 90% | less than 10% | 2500 µg/mL (≈ 7.39 mM) | 41.8 × | 
COCC(=O)N(c1c(C)ccc(N)c1C)C(C)C(=O)OC (centres unmarked) [Compound 10, N-(1'methoxycarbonylethyl)-N-methoxyacetyl-2,6-dimethyl-3-aminoaniline] | less than 10% | less than 10% | 10-15% | over 90% | over 90% | less than 10% |  |  | less than 10%
COCC(=O)N(c1c(C)ccc([N+](=O)[O-])c1C)C(C)C(=O)OC (centres unmarked) [Compound 28, N-(1'-methoxycarbonylethyl)-N-methoxyacetyl-2,6-dimethyl-3-nitroaniline] | less than 10% | less than 10% | 10-15% | over 90% | over 90% | less than 10% | 2500 µg/mL (≈ 7.71 mM) | 35.8 × | 
CCOCC(=O)N(c1c(Cl)ccc([N+](=O)[O-])c1C)C(C)C(=O)OC (centres unmarked) [Compound 107] |  | less than 10% |  | over 90% | over 90% |  |  |  | less than 10%
COCC(=O)N(c1c(C)cccc1[N+](=O)[O-])C(C)C(=O)OC (centres unmarked) [Compound 48, N-(1'-methoxycarbonylethyl)-N-methoxyacetyl-2-methyl-6-nitroaniline] | less than 10% | less than 10% |  | over 90% | over 90% | less than 10% | 4000 µg/mL (≈ 12.9 mM) | 12.3 × | 
COCC(=O)N(c1c(C)ccc([N+](=O)[O-])c1C)C(C)C(=O)OC(C)C (centres unmarked) [Compound 33, N-(1'-isopropyloxycarbonylethyl)-N-methoxyacetyl-2,6-dimethyl-3-nitroaniline] | less than 10% | less than 10% |  | over 90% | over 90% | less than 10% | 500 µg/mL (≈ 1.42 mM) | 45.6 × | 
